Test results published in ChEMBL document CHEMBL1201861, “Genomics of Drug Sensitity in Cancer screening data, Wellcome Trust Sanger Institute”.

Key:
Experiment in all cases: cells
[1] = test system: AM-38; type: functional, cell-based, Homo sapiens; conditions: Homo sapiens, AM-38;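 also: growth inhibition of AM-38 cells of human origin, read out by a cell viability assay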
Description: SANGER: Inhibition of human AM-38 cell growth in a cell viability assay.

[2] = test system: Ramos-2G6-4C10; type: functional, cell-based, Homo sapiens; conditions: Homo sapiens, Ramos-2G6-4C10;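 also: growth inhibition of the cell line, measured by a cell viability read-out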
Description: SANGER: Inhibition of human Ramos-2G6-4C10 cell growth in a cell viability assay.

[3] = test system: D-502MG; type: functional, cell-based, Homo sapiens; conditions: Homo sapiens, D-502MG
Description: SANGER: Inhibition of human D-502MG cell growth in a cell viability assay.

[4] = test system: LB996-RCC; type: functional, cell-based, Homo sapiens; conditions: Homo sapiens, LB996-RCC
Description: SANGER: Inhibition of human LB996-RCC cell growth in a cell viability assay.

[5] = test system: SF-539; type: functional, cell-based, Homo sapiens; conditions: Homo sapiens, SF-539;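 also: Read-out is a cell viability assay, with IC50 reflecting inhibition of cell growth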
Description: SANGER: Inhibition of human SF539 cell growth in a cell viability assay.

[6] = test system: SNB-75; type: functional, cell-based, Homo sapiens; conditions: Homo sapiens, SNB-75;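 also: cell viability assay measuring growth inhibition of human SNB-75 cells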
Description: SANGER: Inhibition of human SNB75 cell growth in a cell viability assay.

[7] = test system: ML-2; type: functional, cell-based, Homo sapiens; conditions: Homo sapiens, ML-2;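 also: growth inhibition of ML-2 cells, measured with a cell viability readout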
Description: SANGER: Inhibition of human ML-2 cell growth in a cell viability assay.

[8] = test system: EW-13; type: functional, cell-based, Homo sapiens; conditions: Homo sapiens, EW-13; read-out: IC50;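 also: growth inhibition of EW-13 cells, read out with a cell viability assay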
Description: SANGER: Inhibition of human EW-13 cell growth in a cell viability assay.

[9] = test system: TE-6; type: functional, cell-based, Homo sapiens; conditions: Homo sapiens, TE-6;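 also: growth inhibition of TE-6 cells, read out with a cell viability assay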
Description: SANGER: Inhibition of human TE-6 cell growth in a cell viability assay.

[10] = test system: DEL; type: functional, cell-based, Homo sapiens; conditions: Homo sapiens, DEL;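 also: growth inhibition of the human DEL cell line, read out with a cell viability assay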
Description: SANGER: Inhibition of human DEL cell growth in a cell viability assay.

[11] = test system: SW982; type: functional, cell-based; conditions: Homo sapiens;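 also: growth inhibition of SW982 cells, read out with a cell viability assay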
Description: SANGER: Inhibition of human SW982 cell growth in a cell viability assay.

[12] = test system: Calu-6; type: functional, cell-based, Homo sapiens; conditions: Homo sapiens, Calu-6;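 also: growth of human Calu-6 cells, read out by a cell viability assay, IC50 marking inhibition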
Description: SANGER: Inhibition of human Calu-6 cell growth in a cell viability assay.

[13] = test system: DB; type: functional, cell-based, Homo sapiens; conditions: Homo sapiens, DB
Description: SANGER: Inhibition of human DB cell growth in a cell viability assay.

[14] = test system: NCI-H209; type: functional, cell-based, Homo sapiens; conditions: Homo sapiens, NCI-H209;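 also: growth inhibition of human NCI-H209 cells, measured by a cell viability assay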
Description: SANGER: Inhibition of human NCI-H209 cell growth in a cell viability assay.

[15] = test system: ES8; type: functional, cell-based, Homo sapiens; conditions: Homo sapiens, ES8;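 also: growth inhibition of human ES8 cells, read out with a cell viability assay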
Description: SANGER: Inhibition of human ES8 cell growth in a cell viability assay.

[16] = test system: K5; type: functional, cell-based, Homo sapiens; conditions: Homo sapiens, K5
Description: SANGER: Inhibition of human K5 cell growth in a cell viability assay.

[17] = test system: SJSA-1; type: functional, cell-based, Homo sapiens; conditions: Homo sapiens, SJSA-1;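 also: growth inhibition of human SJSA-1 cells, read out through a cell viability measurement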
Description: SANGER: Inhibition of human SJSA-1 cell growth in a cell viability assay.

[18] = test system: HDLM-2; type: functional, cell-based, Homo sapiens; conditions: Homo sapiens, HDLM-2;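 also: cell viability assay measuring suppression of HDLM-2 proliferation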
Description: SANGER: Inhibition of human HDLM-2 cell growth in a cell viability assay.

[19] = test system: ES6; type: functional, cell-based; conditions: Homo sapiens;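 also: growth inhibition of human ES6 cells, read out with a cell viability assay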
Description: SANGER: Inhibition of human ES6 cell growth in a cell viability assay.

[20] = test system: NB13; type: functional, cell-based, Homo sapiens; conditions: Homo sapiens, NB13;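 also: cell viability readout measuring growth inhibition of human NB13 cells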
Description: SANGER: Inhibition of human NB13 cell growth in a cell viability assay.

[21] = test system: IST-MEL1; type: functional, cell-based, Homo sapiens; conditions: Homo sapiens, IST-MEL1;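 also: growth inhibition of the cell line, read out with a cell viability assay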
Description: SANGER: Inhibition of human IST-MEL1 cell growth in a cell viability assay.

[22] = test system: MS-1; type: functional, cell-based, Homo sapiens; conditions: Homo sapiens, MS-1;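 also: growth inhibition of MS-1 cells, read out by cell viability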
Description: SANGER: Inhibition of human MS-1 cell growth in a cell viability assay.

[23] = test system: A3-KAW; type: functional, cell-based, Homo sapiens; conditions: Homo sapiens, A3-KAW;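 also: growth inhibition of human A3-KAW cells, read out with a cell viability assay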
Description: SANGER: Inhibition of human A3-KAW cell growth in a cell viability assay.

[24] = test system: MOLT-4; type: functional, cell-based, Homo sapiens; conditions: Homo sapiens, MOLT-4;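 also: growth inhibition of MOLT-4 cells, determined with a cell viability readout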
Description: SANGER: Inhibition of human MOLT-4 cell growth in a cell viability assay.

[25] = test system: TE-9; type: functional, cell-based, Homo sapiens; conditions: Homo sapiens, TE-9;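 also: cell growth inhibition, measured with a cell viability readout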
Description: SANGER: Inhibition of human TE-9 cell growth in a cell viability assay.

[26] = test system: CTB-1; type: functional, cell-based, Homo sapiens; conditions: Homo sapiens, CTB-1
Description: SANGER: Inhibition of human CTB-1 cell growth in a cell viability assay.

[27] = test system: NTERA-2-cl-D1; type: functional, cell-based, Homo sapiens; conditions: Homo sapiens, NTERA-2-cl-D1;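 also: inhibition of cell growth, measured with a cell viability assay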
Description: SANGER: Inhibition of human NTERA-S-cl-D1 cell growth in a cell viability assay.

[28] = test system: SW684; type: functional, cell-based, Homo sapiens; conditions: Homo sapiens, SW684; read-out: IC50;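 also: growth inhibition of human SW684 cells, measured by a cell viability assay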
Description: SANGER: Inhibition of human SW684 cell growth in a cell viability assay.

[29] = test system: NCI-H82; type: functional, cell-based, Homo sapiens; conditions: Homo sapiens, NCI-H82;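 also: growth inhibition of NCI-H82 cells, measured with a cell viability readout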
Description: SANGER: Inhibition of human NCI-H82 cell growth in a cell viability assay.

[30] = test system: HT-144; type: functional, cell-based, Homo sapiens; conditions: Homo sapiens, HT-144
Description: SANGER: Inhibition of human HT-144 cell growth in a cell viability assay.

[31] = test system: A388; type: functional, cell-based; conditions: Homo sapiens;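 also: growth inhibition of human A388 cells, read out with a cell viability assay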
Description: SANGER: Inhibition of human A388 cell growth in a cell viability assay.

[32] = test system: LB831-BLC; type: functional, cell-based, Homo sapiens; conditions: Homo sapiens, LB831-BLC;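 also: growth inhibition of LB831-BLC cells, read out with a cell viability assay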
Description: SANGER: Inhibition of human LB831-BLC cell growth in a cell viability assay.

[33] = test system: ES5; type: functional, cell-based, Homo sapiens; conditions: Homo sapiens, ES5;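 also: growth inhibition of human ES5 cells, read out by a cell viability assay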
Description: SANGER: Inhibition of human ES5 cell growth in a cell viability assay.

[34] = test system: MEG-01; type: functional, cell-based, Homo sapiens; conditions: Homo sapiens, MEG-01;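 also: growth inhibition of MEG-01 cells, read out by a cell viability assay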
Description: SANGER: Inhibition of human MEG-01 cell growth in a cell viability assay.

[35] = test system: MHH-NB-11; type: functional, cell-based, Homo sapiens; conditions: Homo sapiens, MHH-NB-11;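 also: growth inhibition of human MHH-NB-11 cells, read out by a cell viability assay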
Description: SANGER: Inhibition of human MHH-NB-11 cell growth in a cell viability assay.

[36] = test system: LB2518-MEL; type: functional, cell-based; conditions: Homo sapiens;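 also: growth inhibition of human LB2518-MEL cells, measured with a cell viability assay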
Description: SANGER: Inhibition of human LB2518-MEL cell growth in a cell viability assay.

[37] = test system: GAK; type: functional, cell-based, Homo sapiens; conditions: Homo sapiens, GAK;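 also: cell growth inhibition read out by a cell viability assay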
Description: SANGER: Inhibition of human GAK cell growth in a cell viability assay.

[38] = test system: Becker; type: functional, cell-based, Homo sapiens; conditions: Homo sapiens, Becker;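 also: growth inhibition of Becker cells, read out with a cell viability assay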
Description: SANGER: Inhibition of human Becker cell growth in a cell viability assay.

[39] = test system: NMC-G1; type: functional, cell-based, Homo sapiens; conditions: Homo sapiens, NMC-G1;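 also: growth inhibition of the NMC-G1 cell line, measured with a cell viability read-out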
Description: SANGER: Inhibition of human NMC-G1 cell growth in a cell viability assay.

[40] = test system: SW 954; type: functional, cell-based, Homo sapiens; conditions: Homo sapiens, SW 954;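 also: growth inhibition of SW954 human cancer cells, read out as cell viability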
Description: SANGER: Inhibition of human SW954 cell growth in a cell viability assay.

[41] = test system: TK-10; type: functional, cell-based, Homo sapiens; conditions: Homo sapiens, TK-10;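 also: growth inhibition of TK-10 cells, read out in a cell viability assay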
Description: SANGER: Inhibition of human TK10 cell growth in a cell viability assay.

[42] = test system: EM-2; type: functional, cell-based, Homo sapiens; conditions: Homo sapiens, EM-2;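 also: growth inhibition of EM-2 cells, read out with a cell viability assay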
Description: SANGER: Inhibition of human EM-2 cell growth in a cell viability assay.

[43] = test system: NB69; type: functional, cell-based, Homo sapiens; conditions: Homo sapiens, NB69;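 also: growth inhibition of NB69 cells, determined by a cell viability assay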
Description: SANGER: Inhibition of human NB69 cell growth in a cell viability assay.

[44] = test system: TE-1; type: functional, cell-based, Homo sapiens; conditions: Homo sapiens, TE-1;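 also: growth inhibition of the human TE-1 cell line, read out with a cell viability assay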
Description: SANGER: Inhibition of human TE-1 cell growth in a cell viability assay.

[45] = test system: SHP77; type: functional, cell-based, Homo sapiens, SHP-77; conditions: Homo sapiens, SHP77;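 also: growth inhibition of human SHP-77 cells measured by a cell viability assay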
Description: SANGER: Inhibition of human SHP-77 cell growth in a cell viability assay.

[46] = test system: L-428; type: functional, cell-based, Homo sapiens; conditions: Homo sapiens, L-428
Description: SANGER: Inhibition of human L-428 cell growth in a cell viability assay.

[47] = test system: LS-123; type: functional, cell-based, Homo sapiens; conditions: Homo sapiens, LS-123
Description: SANGER: Inhibition of human LS-123 cell growth in a cell viability assay.

[48] = test system: A704; type: functional, cell-based; conditions: Homo sapiens;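 also: growth inhibition of human A704 cells, read out with a cell viability assay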
Description: SANGER: Inhibition of human A704 cell growth in a cell viability assay.

[49] = test system: LXF-289 cell line; type: functional, cell-based; conditions: Homo sapiens
Description: SANGER: Inhibition of human LXF-289 cell growth in a cell viability assay.

[50] = test system: TGW; type: functional, cell-based, Homo sapiens; conditions: Homo sapiens, TGW;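 also: growth inhibition of human TGW cells, read out with a cell viability assay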
Description: SANGER: Inhibition of human TGW cell growth in a cell viability assay.

Compound: O=C1NC(=O)c2c1c(-c1ccccc1Cl)cc1[nH]c3ccc(O)cc3c21
- IC50 [1]: > 2 µM
- IC50 [2]: 0.61 µM
- IC50 [3]: > 2 µM
- IC50 [4]: > 2 µM
- IC50 [5]: 1.25 µM
- IC50 [6]: > 2 µM
- IC50 [7]: > 2 µM
- IC50 [8]: > 2 µM
- IC50 [9]: > 2 µM
- IC50 [10]: 0.485 µM
- IC50 [11]: > 2 µM
- IC50 [12]: > 2 µM
- IC50 [13]: 1.3 µM
- IC50 [14]: 0.562 µM
- IC50 [15]: > 2 µM
- IC50 [16]: > 2 µM
- IC50 [17]: > 2 µM
- IC50 [18]: > 2 µM
- IC50 [19]: > 2 µM
- IC50 [20]: 0.946 µM
- IC50 [21]: > 2 µM
- IC50 [22]: 0.771 µM
- IC50 [23]: 0.516 µM
- IC50 [24]: > 2 µM
- IC50 [25]: > 2 µM
- IC50 [26]: 0.242 µM
- IC50 [27]: > 2 µM
- IC50 [28]: > 2 µM
- IC50 [29]: > 2 µM
- IC50 [30]: > 2 µM
- IC50 [31]: > 2 µM
- IC50 [32]: > 2 µM
- IC50 [33]: > 2 µM
- IC50 [34]: > 2 µM
- IC50 [35]: > 2 µM
- IC50 [36]: > 2 µM
- IC50 [37]: > 2 µM
- IC50 [38]: > 2 µM
- IC50 [39]: > 2 µM
- IC50 [40]: 0.213 µM
- IC50 [41]: > 2 µM
- IC50 [42]: 1.33 µM
- IC50 [43]: > 2 µM
- IC50 [44]: > 2 µM
- IC50 [45]: > 2 µM
- IC50 [46]: > 2 µM
- IC50 [47]: > 2 µM

Compound: CS(=O)(=O)N1CCN(Cc2cc3nc(-c4cccc5[nH]ncc45)nc(N4CCOCC4)c3s2)CC1 [PICTILISIB]
- IC50 [1]: > 4 µM
- IC50 [2]: 1.61 µM
- IC50 [3]: 2.32 µM
- IC50 [4]: 1.22 µM
- IC50 [5]: > 4 µM
- IC50 [48]: 1.51 µM
- IC50 [6]: 2.02 µM
- IC50 [8]: > 4 µM
- IC50 [9]: > 4 µM
- IC50 [10]: > 4 µM
- IC50 [11]: > 4 µM
- IC50 [12]: > 4 µM
- IC50 [13]: > 4 µM
- IC50 [15]: 0.811 µM
- IC50 [17]: 3.71 µM
- IC50 [18]: 0.949 µM
- IC50 [19]: > 4 µM
- IC50 [20]: > 4 µM
- IC50 [21]: > 4 µM
- IC50 [22]: > 4 µM
- IC50 [23]: > 4 µM
- IC50 [24]: 0.624 µM
- IC50 [25]: > 4 µM
- IC50 [49]: 0.448 µM
- IC50 [26]: 1.14 µM
- IC50 [28]: > 4 µM
- IC50 [29]: > 4 µM
- IC50 [30]: > 4 µM
- IC50 [31]: > 4 µM
- IC50 [32]: > 4 µM
- IC50 [33]: 0.0502 µM
- IC50 [34]: > 4 µM
- IC50 [35]: > 4 µM
- IC50 [36]: > 4 µM
- IC50 [50]: > 4 µM
- IC50 [37]: > 4 µM
- IC50 [38]: 3.17 µM
- IC50 [39]: > 4 µM
- IC50 [40]: > 4 µM
- IC50 [41]: 1.67 µM
- IC50 [42]: 2.51 µM
- IC50 [43]: 0.245 µM
- IC50 [44]: > 4 µM
- IC50 [45]: > 4 µM
- IC50 [46]: > 4 µM
- IC50 [47]: > 4 µM
